“Also recorded” adds a separate entry of the source.
Legend:
[1] = molecular target: T1, carboxyester lipase (hCEL) (Homo sapiens, UniProt P19835); experiment: FFA generation by recombinant hCEL; assay type: biochemical; settings: % FFA generation; read-out: IC50 against hCEL
T1 sequence (P19835 21-753): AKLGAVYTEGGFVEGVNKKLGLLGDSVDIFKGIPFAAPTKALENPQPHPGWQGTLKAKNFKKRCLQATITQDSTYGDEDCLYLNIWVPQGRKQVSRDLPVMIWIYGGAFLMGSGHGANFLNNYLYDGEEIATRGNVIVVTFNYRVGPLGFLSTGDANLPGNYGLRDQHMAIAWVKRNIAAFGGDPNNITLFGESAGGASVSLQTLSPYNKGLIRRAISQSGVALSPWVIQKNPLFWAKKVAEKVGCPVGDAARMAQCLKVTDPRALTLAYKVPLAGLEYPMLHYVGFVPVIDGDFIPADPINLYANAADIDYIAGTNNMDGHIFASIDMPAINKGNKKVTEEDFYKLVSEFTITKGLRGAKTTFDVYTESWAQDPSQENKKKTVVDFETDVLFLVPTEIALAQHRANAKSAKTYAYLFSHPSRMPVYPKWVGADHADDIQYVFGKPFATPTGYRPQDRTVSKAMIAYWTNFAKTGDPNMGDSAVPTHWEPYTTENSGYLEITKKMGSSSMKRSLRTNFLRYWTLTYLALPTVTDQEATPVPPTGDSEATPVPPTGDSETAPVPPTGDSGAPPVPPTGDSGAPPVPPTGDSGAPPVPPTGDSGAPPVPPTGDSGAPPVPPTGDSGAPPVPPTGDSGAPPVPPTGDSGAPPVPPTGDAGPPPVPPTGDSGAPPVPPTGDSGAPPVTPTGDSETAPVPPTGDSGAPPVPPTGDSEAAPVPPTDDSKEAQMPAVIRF
Procedure: (§1) The efficacy of a selection of the prepared analogs was explored to determine their ability to inhibit free fatty acid (FFA) generation from recombinant human lipases while retaining stability. To test these features, the analogs were dissolved in ethanol (200 mM stock) and further diluted to a 600 micromolar (0.3% ethanol) working stock in PBS. The agents were incubated with the recombinant enzymes in serial ⅓ dilutions spanning a range of 200 to 0.3 micromolar for 30 minutes, and then added to the substrate 1 mM glyceryl trilinoleate (GTL) in PBS, pH 7.4 along with cofactor colipase (CLPS; 0.5 mcg/ml).
(§2) These lipases form 15-30% of pancreatic lipases.

[2] = tested on: ob/ob mice with severe pancreatitis; experiment: Caerulein-induced severe pancreatitis in obese ob/ob mice; settings: 20 mg/kg single intraperitoneal dose
Procedure: Genetically obese male ob/ob mice (50-60 gm) were used and baseline tail vein blood draw was collected for serum lipase, triglycerides, and BUN (blood urea nitrogen). […] Severe pancreatitis was induced by implanting an alzet pump subcutaneously containing 2.5 mg/ml caerulein, which was administered at a dose of 50 mc/kg/hr. Six hours later a tail vein sample (50 microliters) was tested for serum lipase to verify an increase >3 fold basal.
Animals were sacrificed if they were moribund.

[3] = molecular target: T2, recombinant human pancreatic tri-acyl glycerol lipase [PNLIP; hPTL] (Homo sapiens, UniProt P16233); experiment: FFA generation from glyceryl trilinoleate by recombinant hPNLIP with colipase; assay type: biochemical
T2 sequence (P16233 17-465): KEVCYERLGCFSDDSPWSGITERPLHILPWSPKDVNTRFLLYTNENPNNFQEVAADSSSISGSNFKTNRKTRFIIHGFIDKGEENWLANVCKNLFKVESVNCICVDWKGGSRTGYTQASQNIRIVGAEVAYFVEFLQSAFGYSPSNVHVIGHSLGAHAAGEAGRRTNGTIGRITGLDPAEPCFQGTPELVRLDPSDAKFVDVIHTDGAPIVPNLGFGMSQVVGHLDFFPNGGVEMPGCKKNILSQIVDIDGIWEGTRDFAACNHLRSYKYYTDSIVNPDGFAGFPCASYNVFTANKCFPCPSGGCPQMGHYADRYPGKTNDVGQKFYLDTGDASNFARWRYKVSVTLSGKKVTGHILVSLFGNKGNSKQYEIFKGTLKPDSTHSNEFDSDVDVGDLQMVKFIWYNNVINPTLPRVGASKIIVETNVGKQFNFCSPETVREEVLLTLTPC
T2 sequence (P04118 23-112 partner): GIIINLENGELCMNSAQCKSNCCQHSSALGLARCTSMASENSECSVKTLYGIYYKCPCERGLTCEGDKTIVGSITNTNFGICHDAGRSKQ
Procedure: as §1

pancreatic lysate lipase = molecular target: T3, pancreatic lysate lipase (Mus musculus, UniProt Q6P8U6); experiment: Lipase activity assay with pancreatic lysate (commercial Pointe scientific lipase assay); assay type: biochemical
T3 construct: efficacy against mouse pancreatic lysates; other: summary of strengths of 767; efficacy as a solution when left overnight; other: solution left overnight; efficacy in the lipase activity assay compared with orlistat when fresh; other: fresh solution; IC50 of orlistat after overnight incubation (nearest tested concentration); other: after overnight incubation; improvement in stability and e
T3 sequence (Q6P8U6 17-465): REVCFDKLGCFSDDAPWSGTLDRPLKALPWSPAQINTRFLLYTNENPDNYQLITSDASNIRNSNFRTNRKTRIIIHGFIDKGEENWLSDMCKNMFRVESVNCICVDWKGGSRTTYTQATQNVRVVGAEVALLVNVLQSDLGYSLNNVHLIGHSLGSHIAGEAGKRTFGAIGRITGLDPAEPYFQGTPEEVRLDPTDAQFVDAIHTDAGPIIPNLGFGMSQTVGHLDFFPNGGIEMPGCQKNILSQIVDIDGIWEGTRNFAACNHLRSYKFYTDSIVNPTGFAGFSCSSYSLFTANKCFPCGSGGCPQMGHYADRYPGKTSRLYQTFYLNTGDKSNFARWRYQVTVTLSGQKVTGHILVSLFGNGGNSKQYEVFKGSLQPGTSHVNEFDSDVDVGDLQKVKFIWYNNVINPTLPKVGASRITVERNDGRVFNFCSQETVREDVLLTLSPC
Procedure: To test the efficacy of these compounds, the agents were dissolved as a 20 mM stock in ethanol, and further diluted to in PBS as a 600 micromolar working stock (3.3% ethanol). This was either used immediately or left at room temperature for 16-20 hours overnight before retesting efficacy. The agents were incubated with a pancreatic lysate in serial ⅓ dilutions spanning a range of 200 to 0.3 micromolars for 30 minutes. 5 microliters of these mixtures were then used to measure lipase activity using a commercial lipase assay (Pointe scientific) containing a monoacyl glycerol lipase in the reagent. The lipase assay was done using reagents in proportion to the recommended protocol. Values were depicted as % maximal lipase activity of the well without any inhibitor.

[4] = tested on: Mouse pancreatic acinar cells; experiment: Toxicity study in pancreatic acinar cells (ATP levels, LDH leakage); assay type: cell-based; settings: 4 hours, 20-200 micromolar range
Procedure: Toxicity studies of the relevant compounds were also performed using by diluting the original ethanol stock 200 mM into the incubation medium for acinar cells (HEPES buffer, pH 7.4, as described by Navina et al) 600 micromolar stock solutions of the compounds in 0.3% ethanol in PBS. These were added to acinar cells at ⅓ dilutions starting at 200 micromolar. Mouse pancreatic acinar ATP levels and LDH leakage were measured over 4 hours and compared to control. Any number positive over control indicates % injury greater than control acini.

[5] = molecular target: T4, recombinant human pancreatic lipase related protein 2 (hPLRP2) (Homo sapiens, UniProt P54317); experiment: FFA generation by recombinant hPLRP2; assay type: biochemical; settings: % FFA generation; read-out: IC50 against hPLRP2
T4 sequence (P54317 18-469): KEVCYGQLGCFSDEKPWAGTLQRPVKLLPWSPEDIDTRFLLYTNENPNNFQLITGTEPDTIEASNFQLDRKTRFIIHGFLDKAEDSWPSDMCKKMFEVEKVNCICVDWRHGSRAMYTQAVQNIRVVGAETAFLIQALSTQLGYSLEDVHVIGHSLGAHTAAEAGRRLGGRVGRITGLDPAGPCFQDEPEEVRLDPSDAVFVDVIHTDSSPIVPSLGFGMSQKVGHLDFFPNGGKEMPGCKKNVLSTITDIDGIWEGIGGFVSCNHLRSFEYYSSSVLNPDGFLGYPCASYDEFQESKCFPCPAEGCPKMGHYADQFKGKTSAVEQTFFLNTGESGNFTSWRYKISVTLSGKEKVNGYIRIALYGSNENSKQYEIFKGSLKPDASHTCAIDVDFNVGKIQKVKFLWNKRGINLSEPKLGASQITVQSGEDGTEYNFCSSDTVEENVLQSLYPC
Procedure: as §1, §2

[6] = tested on: acinar cells incubated with GTL; experiment: GTL induced acinar injury (LDH leakage); assay type: cell-based; settings: 10 micromolar
Description: as §2

[7] = tested on: Propionibacterium acnes (Strain VPI0389, ATCC); experiment: Lipolysis / FFA generation by P. acnes culture; assay type: cell-based; settings: broth FFA generation and spirit blue agar
Procedure: For medium, 2.0 g of Casein hydrolysate enzymatic digest (Cat #12855, Affymetrix Inc, Ohio, USA), 1.0 g of Yeast extract (Cat #61180-5000, Acros organics, New Jersey, USA) and 0.03 g of Victoria Blue B (Cat #sc-216055, Santa Crutz Biotechnology Inc, California, USA) were dissolved completely in 200 ml of double distilled water with mild heating. The mixed solution was sterilized by autoclaving at 15 lbs pressure (121° C.) for 15 min. The autoclaved solution allowed to cool down to 50° C., then 6 ml of emulsified lipase substrate slowly added with continuous stirring to get an even distribution and stored at 4° C. for P. acnes culture.
Lipase substrate preparation: Lipase substrate was prepared by mixing 200 μl of Tween 80 (Cat #P4780, Sigma, St louis, USA) in 100 ml of warm double distilled water and 25 ml of Cotton seeds oil (Cat #C0145, Spectrum chemical, California, USA). […]
A small part of lyophilized Propionibacterium acnes (Strain VPI0389, ATCC) was added to the medium and allowed to grow at 37° C. for 48 h in a BD GasPak EZ standard incubation container (Cat #260671, Beckton Dickinson, MD, USA) with two anaerobe Sachets (Cat #260683, Beckton Dickinson, MD, USA) which maintained the anaerobic condition within the container. After 48 h of culture, bacterial count was measured by turbidity (OD600 nm) method. […]

CCCCCCCCCCC[C@@H](C[C@@H]1OC(=O)[C@H]1CC)OC(=O)[C@H](C)NC=O [Compound 767]
IC50 [1]: ≤ 2000 nM
5 day survival [2]: 8/8
PD (pulse distention, shock) [2]: 290±20 μm
UFAs [2]: 2.4 ± 0.4 mM
hypertriglyceridemia [2]: without the hypertriglyceridemia
leucopenia (mice affected) [2]: 0/8
serum calcium [2]: 8.8 ± 1.0 mg/dL
temperature (hypothermia) [2]: 94.1±0.8 ° F.
BUN (peak) ([2]; caerulein pancreatitis): 18.5 ± 0.9 mg/dL
IC50 against hPNLIP, fold lower than orlistat or 741 ([3]; in the presence of colipase (CLPS), 1 mM GTL substrate): 50 ×
stability in aqueous solution ([3]; retention of inhibition after overnight storage): best stability; also recorded: better stability in aqueous media
IC50 ([3]; solution stored overnight, with colipase, read-out: IC50 against hPNLIP when stored overnight): < 2000 nM
potency against the most prevalent lipase (hPTL) ([3]; summary of strengths of 767): higher potency
efficacy in the lipase activity assay compared with orlistat when fresh (pancreatic lysate lipase; fresh solution): equivalent efficacy
efficacy as a solution when left overnight (pancreatic lysate lipase; solution left overnight): significantly retained its efficacy
efficacy against mouse pancreatic lysates (pancreatic lysate lipase; summary of strengths of 767): higher efficacy
toxicity to acinar cells [4]: lower toxicity
IC50 [5]: ≤ 2000 nM
efficacy in reducing GTL induced acinar injury compared with orlistat ([6]; LDH leakage): more efficacious
toxicity compared with orlistat ([6]; acinar cells): less toxic
lipolysis by P. acnes [7]: inhibited

— patent US12325690B2, “Compounds for the reducing lipotoxic damage” (Mayo Foundation for Medical Education and Research, priority 2017, dated 2025)
